Values quoted from earlier work in publication PMC6138493 (British Journal of Clinical Pharmacology, 2018).

Conditions: after intravenous administration; ref Onasch et al. 24

## NCCc1ccc(O)c(O)c1 [DA, dopamine]
  Elimination half‐life of DA in plasma: a few minutes
